This note sets out measurements from ChEMBL document CHEMBL3813632, “Thiazolo[3,2-a]benzimidazol-3(2H)-one derivatives: Structure-activity relationships of selective nucleotide pyrophosphatase/phosphodiesterase1 (NPP1) inhibitors” (Bioorg Med Chem, 2016).

A short description of data set [1]: Retention time of the compound in MgCl2/CaCl2/CHES buffer at pH 9 by LC-MS analysis. Format: physicochemical.
Data set [2] can be described thus: Drug level in MgCl2/CaCl2/CHES buffer treated with (Z)-2-((5-iodofuran-2-yl)methylene)benzo[d]thiazolo[3,2-a]imidazol-3(2H)-one at pH 9 after 24 hrs by LC-MS analysis. Type of data set: physicochemical. The settings on record: pH 9, 24 h.
The target of data set [3] is T1, Ectonucleotide pyrophosphatase/phosphodiesterase family member 1 (Homo sapiens, UniProt P22413).
T1 sequence (P22413 whole entry): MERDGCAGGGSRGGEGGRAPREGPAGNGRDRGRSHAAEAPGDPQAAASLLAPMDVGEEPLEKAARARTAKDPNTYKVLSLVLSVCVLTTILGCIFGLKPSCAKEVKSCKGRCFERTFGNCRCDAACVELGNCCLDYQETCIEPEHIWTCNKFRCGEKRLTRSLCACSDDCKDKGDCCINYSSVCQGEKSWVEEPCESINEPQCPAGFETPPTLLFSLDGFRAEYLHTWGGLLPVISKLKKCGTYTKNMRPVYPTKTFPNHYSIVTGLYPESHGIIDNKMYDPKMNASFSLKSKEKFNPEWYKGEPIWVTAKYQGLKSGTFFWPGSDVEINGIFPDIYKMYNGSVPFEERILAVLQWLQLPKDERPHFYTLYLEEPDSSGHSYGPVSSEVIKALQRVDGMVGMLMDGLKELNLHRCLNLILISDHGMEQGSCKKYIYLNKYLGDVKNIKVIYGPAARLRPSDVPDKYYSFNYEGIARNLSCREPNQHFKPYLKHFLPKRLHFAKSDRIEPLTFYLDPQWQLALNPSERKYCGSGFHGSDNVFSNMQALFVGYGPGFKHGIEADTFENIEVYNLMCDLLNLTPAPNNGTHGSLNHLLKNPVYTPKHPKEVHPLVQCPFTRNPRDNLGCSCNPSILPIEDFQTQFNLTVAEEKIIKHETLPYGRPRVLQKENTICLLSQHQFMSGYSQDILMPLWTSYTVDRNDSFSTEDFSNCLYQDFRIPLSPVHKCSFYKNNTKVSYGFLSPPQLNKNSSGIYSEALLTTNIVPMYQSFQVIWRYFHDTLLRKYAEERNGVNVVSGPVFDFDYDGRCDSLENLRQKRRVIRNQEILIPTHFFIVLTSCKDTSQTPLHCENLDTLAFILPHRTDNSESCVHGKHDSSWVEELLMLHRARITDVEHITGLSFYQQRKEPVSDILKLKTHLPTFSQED
The data set is described as follows: Inhibition of human recombinant NPP1 expressed in insect SF9 cells using ATP as substrate preincubated with substrate followed by protein addition and subsequent incubation for 30 mins by capillary electrophoresis.

Data set [4] has as its target T2, Ectonucleotide pyrophosphatase/phosphodiesterase family member 1 (Homo sapiens) (UniProt P22413).
T2 sequence (whole entry): T1 sequence (P22413 whole entry)
The data set is described as follows: Inhibition of human recombinant NPP1 expressed in insect SF9 cells using ATP as substrate at 10 uM preincubated with substrate followed by protein addition and subsequent incubation for 30 mins by capillary electrophoresis.

For data set [5], the target named is T1, Ectonucleotide pyrophosphatase/phosphodiesterase family member 1. The data set is described as follows: Competitive inhibition of human NPP1 transfected in HEK293 cells using p-Nph-5'-TMP as substrate preincubated for 3 mins followed by substrate addition measured after 15 mins by Cornish-Bowden plot analysis.
Data set [6] shares this target. The data set is described as follows: Competitive inhibition of human NPP1 expressed in African green monkey COS7 cells using ATP as substrate after 20 mins by Michaelis-Menten plot analysis. Type of data set: cell-based, COS-7.

`O=C(/C(O)=C\c1ccc(I)o1)n1c(=S)[nH]c2ccccc21` showed a Retention_time in data set [1] of 3.8 min. Moreover, the Drug metabolism result in data set [2] is “metabolite_detected”.

For `O=c1/c(=C/c2cccc(OCc3ccccc3)c2)sc2nc3ccccc3n12`, in data set [3], the Ki (usually the equilibrium dissociation constant of an inhibitor or competing ligand from its target) was greater than 10 µM. Moreover, the inhibition (as a rule, how much of the control response was suppressed) in data set [4] is 10%.

For the compound `CCN(CC)c1ncnc2c1ncn2[C@@H]1O[C@H](COP(=O)(O)OP(=O)(O)C(Br)(Br)P(=O)(O)O)[C@@H](O)[C@H]1O`, in data set [5], the affinity corresponds to a Ki of 12 µM.

Consider `O=c1/c(=C/c2ccc(Cl)cc2)sc2nc3ccccc3n12`, for which, in data set [3], the Ki was greater than 10 µM. For the same compound, the inhibition in data set [4] stood at 32%.

For `O=c1/c(=C/c2cccc(Cc3ccccc3)c2)sc2nc3ccccc3n12`, the Ki in data set [3] is greater than 10 µM. In addition, in data set [4], the inhibition is 11%.

Regarding `O=c1/c(=C/c2cccs2)sc2nc3ccccc3n12`, in data set [3], the Ki was no less than 10 µM. For the same compound, in data set [4], the inhibition was found to be 43%.

For `CC1CCN(c2cc(N3CCC(C)CC3)c([N+](=O)[O-])cc2/C=c2/sc3nc4ccccc4n3c2=O)CC1`, in data set [3], the Ki came out at 8.56 µM.

Consider `C/C=c1\sc2nc3ccccc3n2c1=O`, for which the Ki in data set [3] is greater than 10 µM. The inhibition in data set [4] is 0%.

For the compound `O=c1/c(=C\c2ccccc2)sc2nc3ccccc3n12`, in data set [3], the Ki is greater than 10 µM. The inhibition in data set [4] worked out at 10%.

With `O=c1/c(=C/c2ccc([N+](=O)[O-])o2)sc2nc3ccccc3n12`, in data set [3], the Ki was determined as 1.07 µM.

Consider `O=c1/c(=C/c2ccc(-c3ccccc3)o2)sc2nc3ccccc3n12`, for which the Ki in data set [3] is no less than 10 µM. In data set [4], the inhibition was 48%.

Consider `Cc1ccc(/C=c2\sc3nc4ccccc4n3c2=O)cc1`, for which the Ki in data set [3] is greater than 10 µM. The inhibition in data set [4] was found to be 28%.

As for `O=c1[nH]c2ccccc2cc1/C=c1/sc2nc3ccccc3n2c1=O`, in data set [3], the Ki was greater than 10 µM. For the same compound, in data set [4], the inhibition is 30%.

For `Cc1ccc(/C=c2\sc3nc4ccccc4n3c2=O)o1`, in data set [3], the Ki was 2.11 µM.

With `O=c1/c(=C/c2ccc(Br)o2)sc2nc3ccccc3n12`, the Ki in data set [3] came out at 0.61 µM.

On to `O=c1/c(=C/c2ccc(N3CCOCC3)cc2)sc2nc3ccccc3n12`, for which the Ki in data set [3] turned out to be 8.91 µM.

As for `O=c1/c(=C/c2cccc(Oc3ccccc3)c2)sc2nc3ccccc3n12`, the Ki in data set [3] is greater than 10 µM. For the same compound, the inhibition in data set [4] worked out at 13%.

Turning to `CN(C)c1ccc(/C=c2\sc3nc4ccccc4n3c2=O)o1`, the inhibitory constant (Ki) in data set [3] worked out at 4.21 µM.

As for `O=c1/c(=C/c2ccccn2)sc2nc3ccccc3n12`, the Ki in data set [3] is greater than 10 µM. Besides, the inhibition in data set [4] was 39%.

In the case of `O=c1/c(=C/c2ccc(I)cc2)sc2nc3ccccc3n12`, the Ki in data set [3] was greater than 10 µM. Further, the inhibition in data set [4] came out at 31%.

Take `O=c1/c(=C/c2ccco2)sc2nc3ccccc3n12`: the Ki in data set [3] came to 0.981 µM.

Turning to `O=c1/c(=C/c2ccc(Sc3ccccc3)o2)sc2nc3ccccc3n12`, the Ki in data set [3] is no less than 10 µM. In addition, the inhibition in data set [4] stood at 40%.

For the compound `O=c1/c(=C/c2ccccc2)sc2nc3ccccc3n12`, the Ki in data set [3] was greater than 10 µM. In data set [4], the inhibition was found to be 31%.

In the case of `O=c1/c(=C\c2ccc3ccccc3c2)sc2nc3ccccc3n12`, the Ki in data set [3] was greater than 10 µM. Besides, the inhibition in data set [4] amounted to 24%.

Consider `O=c1/c(=C/C=C/c2ccccc2)sc2nc3ccccc3n12`, for which the Ki in data set [3] is greater than 10 µM. Besides, the inhibition in data set [4] is 24%.

In turn, `Nc1c(S(=O)(=O)O)cc(Nc2ccc(Nc3nc(Cl)nc(Nc4cccc(S(=O)(=O)O)c4)n3)c(S(=O)(=O)O)c2)c2c1C(=O)c1ccccc1C2=O` [REACTIVE BLUE 2] had a Ki in data set [6] of 0.52 µM.

Take `COc1cc(/C=c2/sc3nc4ccccc4n3c2=O)ccc1OCc1nnn[nH]1`: the inhibitory constant (Ki) in data set [3] was greater than 10 µM. In addition, the inhibition in data set [4] turned out to be 21%.
